# Measured values published in patent US12692254B2, “Benzimidazole inhibitors of PAD enzymes” (BRISTOL-MYERS SQUIBB COMPANY, priority 2018, dated 2026).
# Target: human PAD4 (hPAD4) (Homo sapiens, UniProt Q9UM07)
# Assay: RFMS human PAD4 functional assay (rapid-fire mass spectrum)
# Assay type: biochemical
# Details: 5 nM hPAD4 enzyme, 250 μM BAEE, 50 μM Calcium; 30 min preincubation, 90 min reaction at 37° C.
# Outline: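 PAD4 (10 nM) preincubated 30 min with compound (top final 50 μM), then BAEE substrate added in pH 7.5 HEPES buffer with DTT, 50 μM calcium, TPEN; 90 min at 37° C. After TCA quench, citrulline derivatized with phenyl glyoxal (4 mM final, 30 min, 37° C) and quantified by RapidFire MS against internal standard.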
# Chain of human PAD4 (hPAD4) (Q9UM07 whole entry): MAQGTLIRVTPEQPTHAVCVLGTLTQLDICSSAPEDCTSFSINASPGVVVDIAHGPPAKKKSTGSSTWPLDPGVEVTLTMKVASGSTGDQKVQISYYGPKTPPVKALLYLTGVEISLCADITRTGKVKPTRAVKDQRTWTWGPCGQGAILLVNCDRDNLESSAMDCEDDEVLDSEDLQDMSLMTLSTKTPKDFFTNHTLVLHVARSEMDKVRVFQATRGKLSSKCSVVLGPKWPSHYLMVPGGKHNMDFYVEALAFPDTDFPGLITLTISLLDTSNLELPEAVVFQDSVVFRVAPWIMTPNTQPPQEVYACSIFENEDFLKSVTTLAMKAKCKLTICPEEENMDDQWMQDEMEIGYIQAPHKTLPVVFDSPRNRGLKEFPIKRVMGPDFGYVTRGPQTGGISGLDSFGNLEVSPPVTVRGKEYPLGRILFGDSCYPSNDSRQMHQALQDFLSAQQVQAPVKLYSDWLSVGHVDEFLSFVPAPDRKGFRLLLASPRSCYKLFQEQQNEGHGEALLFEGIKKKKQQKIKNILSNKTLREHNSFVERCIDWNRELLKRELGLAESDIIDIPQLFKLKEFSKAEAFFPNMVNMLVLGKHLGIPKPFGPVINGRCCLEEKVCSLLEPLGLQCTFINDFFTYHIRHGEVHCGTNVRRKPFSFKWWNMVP
row,SMILES,IC50
1,"COc1cc(C(=O)N2C[C@H]3CC[C@@H]2[C@@H]3N)cc2nc(-c3cc4ccccc4n3CC3CC3)n(CC3CN(C(=O)c4ccccn4)C3)c12 [Example 167, (1R,4R,7R)-2-{2-[1-(cyclopropylmethyl)-1H-indol-2-yl]-7-methoxy-1-{[1-(pyridine-2-carbonyl)azetidin-3-yl]methyl}-1H-1,3-benzodiazole-5-carbonyl}-2-azabicyclo[2.2.1]heptan-7-amine]",31 nM
2,"COc1ccccc1C(=O)N1CC(Cn2c(-c3cc4ccccc4n3CC3CC3)nc3cc(C(=O)N4C[C@H]5CC[C@@H]4[C@@H]5N)cc(OC)c32)C1 [Example 168, (1R,4R,7R)-2-{2-[1-(cyclopropylmethyl)-1H-indol-2-yl]-7-methoxy-1-{[1-(2-methoxybenzoyl)azetidin-3-yl]methyl}-1H-1,3-benzodiazol-5-carbonyl}-2-azabicyclo[2.2.1]heptan-7-amine]",33 nM
3,"COc1cc(C(=O)N2C[C@H]3CC[C@@H]2[C@@H]3N)cc2nc(-c3cc4ccccc4n3CC3CC3)n(CC3CN(C(=O)c4cccc(F)c4)C3)c12 [Example 169, (1R,4R,7R)-2-{2-[1-(cyclopropylmethyl)-1H-indol-2-yl]-1-{[1-(3-fluorobenzoyl)azetidin-3-yl]methyl}-7-methoxy-1H-1,3-benzodiazole-5-carbonyl}-2-azabicyclo[2.2.1]heptan-7-amine]",33 nM
4,"N[C@@H]1C2CCC1N(C(=O)c1ccc3c(c1)nc(-c1cc4ccccc4n1CC1CC1)n3CC1CN(C(=O)c3ccccc3)C1)C2 (stereo partly drawn) [Example 170, (1R,4R,7R)-2-{1-[(1-benozylazetidin-3-yl)methyl]-2-[1-(cyclopropylmethyl)-1H-indol-2-yl]-1H-1,3-benzodiazol-5-carbonyl}-2-azabicyclo[2.2.1]heptan-7-amine]",35 nM
5,"COc1cc(C(=O)N2C[C@H]3CC[C@@H]2[C@@H]3N)cc2nc(-c3cc4ccccc4n3CC3CC3)n(CC3CN(C(=O)c4cccnc4)C3)c12 [Example 171, (1R,4R,7R)-2-{2-[1-(cyclopropylmethyl)-1H-indol-2-yl]-7-methoxy-1-{[1-(pyridine-3-carbonyl)azetidin-3-yl]methyl}-1H-1,3-benzodiazole-5-carbonyl}-2-azabicyclo[2.2.1]heptan-7-amine]",41 nM
6,"COc1cc(C(=O)N2CC3CCC2[C@@H]3N)cc2nc(-c3cc4ccccc4n3CC3CC3)n(CC3CN(C(=O)[C@H]4C[C@@H]4C)C3)c12 (stereo partly drawn) [Example 172, (1R,4R,7R)-2-{2-[1-(cyclopropylmethyl)-1H-indol-2-yl]-7-methoxy-1-({1-[(1S,2S)-2-methylcyclopropanecarbonyl]aze-tidin-3-yl}methyl)-1H-1,3-benzodiazole-5-carbonyl}-2-azabicyclo[2.2.1]heptan-7-amine]",42 nM
7,"COc1cc(C(=O)N2C[C@H]3CC[C@@H]2[C@@H]3N)cc2nc(-c3cc4ccccc4n3CC3CC3)n(CC3CN(C(=O)c4nn[nH]n4)C3)c12 [Example 173, (1R,4R,7R)-2-{2-[1-(cyclopropylmethyl)-1H-indol-2-yl]-7-methoxy-1-{[1-(2H-1,2,3,4-tetrazole-5-carbonyl)azetidin-3-yl]methyl}-1H-1,3-benzodiazole-5-carbonyl}-2-azabicyclo[2.2.1]heptan-7-amine]",50 nM
8,"COc1cc(C(=O)N2C[C@H]3CC[C@@H]2[C@@H]3N)cc2nc(-c3cc4ccccc4n3CC3CC3)n(CC3CN(C(=O)c4cc(C#N)ccc4F)C3)c12 [Example 174, 3-[3-({5-[(1R,4R,7R)-7-amino-2-azabicyclo[2.2.1]heptane-2-carbonyl]-2-[1-(cyclopropylmethyl)-1H-indol-2-yl]-7-methoxy-1H-1,3-benzodiazol-1-yl}methyl)azetidine-1-carbonyl]-4-fluorobenzonitrile]",64 nM
9,"N[C@@H]1[C@@H]2CC[C@H]1N(C(=O)c1ccc3c(c1)nc(-c1cc4ccccc4n1CC1CC1)n3CC1CN(C(=O)c3ccncc3)C1)C2 [Example 175, (1R,4R,7R)-2-{2-[1-(cyclopropylmethyl)-1H-indol-2-yl]-1-{[1-(pyridine-4-carbonyl)azetidin-3-yl]methyl}-1H-1,3-benzodiazole-5-carbonyl}-2-azabicyclo[2.2.1]heptan-7-amine]",51 nM

# Second part, the molecule after the results:
row,IC50,SMILES
1,80 nM,"COc1cc(C(=O)N2C[C@H](N)CC[C@@H]2C)cc2nc(-c3cc4ccccc4n3CC3CC3)n(CC3CN(C(=O)c4ccc(C#N)cc4)C3)c12 [Example 176, 4-[3-({5-[(2S,5R)-5-amino-2-methylpiperidine-1-carbonyl]-2-[1-(cyclopropylmethyl)-1H-indol-2-yl]-7-methoxy-1H-1,3-benzodiazol-1-yl}methyl)azetidine-1-carbonyl]benzonitrile]"
2,54 nM,"COc1ccc2cc(-c3nc4cc(C(=O)N5C[C@H]6CC[C@@H]5[C@@H]6N)cc(OC)c4n3CC3CN(C(=O)c4cnc(C#N)nc4)C3)n(CC3CC3)c2n1 [Example 177, 5-[3-({5-[(1R,4R,7R)-7-amino-2-azabicyclo[2.2.1]heptane-2-carbonyl]-2-[1-(cyclopropylmethyl)-6-methoxy-1H-pyrrolo[2,3-b]pyridin-2-yl]-7-methoxy-1H-1,3-benzodiazol-1-yl}methyl)azetidine-1-carbonyl]pyrimidine-2-carbonitrile]"
3,86 nM,"COc1cc(C(=O)N2CC3CCC2[C@@H]3N)cc2nc(-c3cc4ccccc4n3C)n(CC3CN(C(=O)c4ccc(C#N)cc4)C3)c12 (stereo partly drawn) [Example 178, 4-[3-({5-[(7R)-7-amino-2-azabicyclo[2.2.1]heptane-2-carbonyl]-7-methoxy-2-(1-methyl-1H-indol-2-yl)-1H-1,3-benzodiazol-1-yl}methyl)azetidine-1-carbonyl]benzonitrile]"
4,93 nM,"COc1cc(C(=O)N2CC3CCC2[C@@H]3N)cc2nc(-c3cc4ccccc4n3CC3CC3)n(CC3CN(C(=O)c4ccccc4C(=O)O)C3)c12 (stereo partly drawn) [Example 179, 2-[3-({5-[(1R,4R,7R)-7-amino-2-azabicyclo[2.2.1]heptane-2-carobnyl]-2-[1-(cyclopropylmethyl)-1H-indol-2-yl]-7-methoxy-1H-1,3-benzodiazol-1-yl}methyl)azetidine-1-carbonyl]benzoic acid]"
5,95 nM,"COc1cc(C(=O)N2CCC[C@@H](N)C2)cc2nc(-c3cc4ccccc4n3CC3CC3)n(CC3CN(C(=O)c4ccc(C#N)cc4)C3)c12 [Example 180, 4-[3-({5-[(3R)-3-aminopiperidine-1-carbonyl]-2-[1-(cyclopropylmethyl)-1H-indol-2-yl]-7-methoxy-1H-1,3-benzodiazol-1-yl}methyl)azetidine-1-carbonyl]benzonitrile]"
6,101 nM,"COc1cc(C(=O)N2C[C@H]3CC[C@@H]2[C@@H]3N)cc2nc(-c3cc4ccccc4n3C)n(CC3CN(C(=O)c4ccccc4)C3)c12 [Example 181, (1R,4R,7R)-2-{1-[(1-benzoylazetidin-3-yl)methyl]-7-methoxy-2-(1-methyl-1H-indol-2-yl)-1H-1,3-benzodiazole-5-carbonyl}-2-azabicyclo[2.2.1]heptan-7-amine]"
7,204 nM,"COc1cc(C(=O)N2C[C@H]3CC[C@@H]2[C@@H]3N)cc2nc(-c3cc4cccnc4n3CC3CC3)n(CC3CN(C(=O)c4cc[nH]c(=O)c4)C3)c12 [Example 182, 4-[3-({5-[(1R,4R,7R)-7-amino-2-azabicyclo[2.2.1]heptane-2-carbonyl]-2-[1-(cyclopropylmethyl)-1H-pyrrolo[2,3-b]pyridin-2-yl]-7-methoxy-1H-1,3-benzodiazol-1-yl}methyl)azetidine-1-carbonyl]-1,2-dihydropyridin-2-one]"
8,276 nM,"COc1cc(C(=O)N2C[C@H]3CC[C@@H]2[C@@H]3N)cc2nc(-c3cc4cccnc4n3CC3CC3)n(CC3CN(C(=O)c4ccnc(C#N)c4)C3)c12 [Example 183, 4-[3-({5-[(1R,4R,7R)-7-amino-2-azabicyclo[2.2.1]heptane-2-carbonyl]-2-[1-(cyclopropylmethyl)-1H-pyrrolo[2,3-b]pyridin-2-yl]-7-methoxy-1H-1,3-benzodiazol-1-yl}methyl)azetidine-1-carbonyl]pyridine-2-carbonitrile]"
9,309 nM,"COc1cc(C(=O)N2C[C@H]3CC[C@@H]2[C@@H]3N)cc2nc(-c3cc4cccnc4n3CC3CC3)n(C3CN(C(=O)c4ccnc(C#N)c4)C3)c12 [Example 184, 4-(3-{5-[(1R,4R,7R)-7-amino-2-azabicyclo[2.2.1]heptane-2-carbonyl]-2-[1-(cyclopropylmethyl)-1H-pyrrolo[2,3-b]pyridin-2-yl]-7-methoxy-1H-1,3-benzodiazol-1-yl}azetidine-1-carbonyl)pyridine-2-carbonitrile]"
10,316 nM,"COc1cc(C(=O)N2C[C@H]3CC[C@@H]2[C@@H]3N)cc2nc(-c3cc4cccnc4n3CC3CC3)n(C3CN(C(=O)c4cnc(NCC(C)(C)O)nc4)C3)c12 [Example 185, 1-{[5-(3-{5-[(1R,4R,7R)-7-amino-2-azabicyclo[2.2.1]heptane-2-carbonyl]-2-[1-(cyclopropylmethyl)-1H-pyrrolo[2,3-b]pyridin-2-yl]-7-methoxy-1H-1,3-benzodiazol-1-yl}azetidine-1-carbonyl)pyrimidin-2-yl]amino}-2-methylpropan-2-ol]"
11,316 nM,"COc1cc(C(=O)N2C[C@H]3CC[C@@H]2[C@@H]3N)cc2nc(-c3cc4cccnc4n3CC3CC3)n(CC3CN(C(=O)CNC(C)=O)C3)c12 [Example 186, N-{2-[3-({5-[(1R,4R,7R)-7-amino-2-azabicyclo[2.2.1]heptane-2-carbonyl]-2-[1-(cyclopropylmethyl)-1H-pyrrolo[2,3-b]pyridin-2-yl]-7-methoxy-1H-1,3-benzodiazol-1-yl}methyl)azetidin-1-yl]-2-oxoethyl}acetamide]"
12,358 nM,"COc1cc(C(=O)N2C[C@H]3CC[C@@H]2[C@@H]3N)cc2nc(-c3cc4cccnc4n3CC3CC3)n(CC3CN(C(C)=O)C3)c12 [Example 187, 1-[3-({5-[(1R,4R,7R)-7-amino-2-azabicyclo[2.2.1]heptane-2-carbonyl]-2-[1-(cyclopropylmethyl)-1H-pyrrolo[2,3-b]pyridin-2-yl]-7-methoxy-1H-1,3-benzodiazol-1-yl}methyl)azetidin-1-yl]ethan-1-one]"
